Results reported in publication PMC9889419 (Pharmacological Reports, 2022).
pIC50, pKi: −log10 of the molar value. Values joined by “and” are separate entries in the source; they are usually repeats but may differ in a detail not shown here. Identical values can stand only once. Counter-ions that a name gives are not always drawn. Like-named read-outs stand apart in the source and are kept apart here.

What was measured:
CYP2D6 = target: T1, CYP2D6 (Homo sapiens, UniProt P10635); test: Human cytochrome P450 inhibition (human liver microsomes); type: in vitro ADME
T1 construct: from tissue; host or cells: human liver microsomes
T1 sequence (P10635 whole entry): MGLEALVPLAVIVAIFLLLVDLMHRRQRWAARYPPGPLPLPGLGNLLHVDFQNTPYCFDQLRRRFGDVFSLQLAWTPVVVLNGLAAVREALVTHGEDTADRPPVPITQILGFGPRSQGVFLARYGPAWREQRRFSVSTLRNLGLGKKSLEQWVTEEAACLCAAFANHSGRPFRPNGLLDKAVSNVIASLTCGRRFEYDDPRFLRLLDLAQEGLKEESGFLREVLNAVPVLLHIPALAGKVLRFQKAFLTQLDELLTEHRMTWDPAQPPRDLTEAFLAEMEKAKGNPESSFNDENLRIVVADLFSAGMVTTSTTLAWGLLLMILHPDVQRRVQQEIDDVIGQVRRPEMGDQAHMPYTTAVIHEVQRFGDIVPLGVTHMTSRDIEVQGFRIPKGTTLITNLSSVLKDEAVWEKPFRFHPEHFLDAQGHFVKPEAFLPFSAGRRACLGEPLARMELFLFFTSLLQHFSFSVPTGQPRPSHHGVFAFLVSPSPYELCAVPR
Procedure: (§1) The selective reactions utilized for each enzyme were as follows: CYP1A2—phenacetin deethylation, CYP2A6—coumarin 7-hydroxylation, CYP2B6—7-ethoxy-4-trifluoromethyl coumarin O-deethylation, CYP2C9—diclofenac 4-hydroxylation, CYP2C19—S-mephenytoin 4-hydroxylation, CYP2D6—bufuralol 1’-hydroxylation, CYP2E1—chlorzoxazone 6-hydroxylation, CYP3A4—testosterone 6β-hydroxylation. For inhibitory evaluation, human liver microsomes and the tested compound (added in methanol as a solvent) were incubated under aerobic conditions with cytochrome P450 isozyme-selective substrates and excess NADPH at 37 °C. Incubations were for time periods over which the reaction in the absence of the compound, were determined to be linear, and proportional to the protein concentration. The human liver microsomes used were selected from the bank of those commercially available to be especially rich in the amount of the cytochrome P450 isozyme under investigation. However, it is important to note that the microsomes contained all the other isozymes in addition, and if reaction/substrate was less than specific, the other isozymes may have contributed to a minor extent to the enzyme activity determined. Following incubation, the reaction was terminated, an internal standard added, the metabolic products extracted and separated by reverse phase HPLC. Each assay was performed in duplicate, and the mean value calculated. The HPLC elutions were monitored by UV absorbance for all CYP reactions except those for CYP2A6, CYP2B6 and CYP2D6 where fluorescence monitoring was employed. Quantification was by comparison with authentic metabolites.

CYP3A4 = target: T2, CYP3A4 (Homo sapiens, UniProt P08684); test: as above; type: in vitro ADME
T2 construct: The human liver microsomes used were selected from the bank of those commercially available; from tissue; host or cells: human liver microsomes
T2 sequence (P08684 whole entry): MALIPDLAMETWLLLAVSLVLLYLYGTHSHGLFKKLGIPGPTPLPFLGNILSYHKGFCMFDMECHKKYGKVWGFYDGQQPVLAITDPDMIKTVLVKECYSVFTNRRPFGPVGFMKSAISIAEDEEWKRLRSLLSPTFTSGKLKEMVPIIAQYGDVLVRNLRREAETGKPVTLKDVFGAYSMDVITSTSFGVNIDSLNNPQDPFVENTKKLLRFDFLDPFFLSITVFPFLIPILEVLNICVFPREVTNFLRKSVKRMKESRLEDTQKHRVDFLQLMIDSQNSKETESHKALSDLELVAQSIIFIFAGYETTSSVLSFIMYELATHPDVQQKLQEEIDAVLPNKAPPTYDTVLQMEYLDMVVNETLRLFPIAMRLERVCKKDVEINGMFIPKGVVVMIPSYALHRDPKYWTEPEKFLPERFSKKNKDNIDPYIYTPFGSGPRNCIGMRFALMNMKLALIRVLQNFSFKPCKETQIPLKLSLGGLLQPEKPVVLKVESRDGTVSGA
Procedure: as §1

CYP2A6 = target: T3, CYP2A6 (Homo sapiens, UniProt P11509); test: as above; type: in vitro ADME
T3 construct: tissue celsis X008064-LSL; host or cells: human liver microsomes
T3 sequence (P11509 1-494): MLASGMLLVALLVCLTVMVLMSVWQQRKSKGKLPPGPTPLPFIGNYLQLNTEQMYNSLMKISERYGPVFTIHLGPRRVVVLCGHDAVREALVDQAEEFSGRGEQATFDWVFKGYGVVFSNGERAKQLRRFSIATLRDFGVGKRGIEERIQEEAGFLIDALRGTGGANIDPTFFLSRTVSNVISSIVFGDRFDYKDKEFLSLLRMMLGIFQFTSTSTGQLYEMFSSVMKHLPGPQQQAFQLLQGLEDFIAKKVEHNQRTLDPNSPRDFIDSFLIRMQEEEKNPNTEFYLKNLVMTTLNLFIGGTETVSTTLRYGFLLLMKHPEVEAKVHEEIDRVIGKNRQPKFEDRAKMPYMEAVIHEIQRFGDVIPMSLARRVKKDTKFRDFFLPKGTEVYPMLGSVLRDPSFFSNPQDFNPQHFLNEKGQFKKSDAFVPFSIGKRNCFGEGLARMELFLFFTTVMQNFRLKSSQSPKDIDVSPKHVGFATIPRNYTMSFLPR
Procedure: as §1

CYP2B6 = target: T4, CYP2B6 (Homo sapiens, UniProt P20813); test: as above; type: in vitro ADME
T4 construct: tissue celsis M008085JTA; host or cells: human liver microsomes
T4 sequence (P20813 whole entry): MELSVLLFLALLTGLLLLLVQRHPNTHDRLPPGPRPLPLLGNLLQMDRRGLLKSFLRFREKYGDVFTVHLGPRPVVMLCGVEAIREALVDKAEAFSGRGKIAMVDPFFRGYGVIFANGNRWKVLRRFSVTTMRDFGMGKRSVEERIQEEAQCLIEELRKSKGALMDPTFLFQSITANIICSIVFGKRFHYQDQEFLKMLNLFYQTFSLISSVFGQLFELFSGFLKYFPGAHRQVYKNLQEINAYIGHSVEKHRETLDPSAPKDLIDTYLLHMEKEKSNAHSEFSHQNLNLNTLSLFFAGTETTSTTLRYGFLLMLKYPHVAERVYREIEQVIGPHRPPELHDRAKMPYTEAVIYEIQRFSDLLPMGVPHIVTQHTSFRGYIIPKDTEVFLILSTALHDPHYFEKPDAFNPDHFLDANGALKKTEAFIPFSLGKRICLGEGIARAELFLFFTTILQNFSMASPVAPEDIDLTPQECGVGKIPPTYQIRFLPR
Procedure: as §1

CYP2C19 = target: T5, CYP2C19 (Homo sapiens, UniProt P33261); test: as above; type: in vitro ADME
T5 construct: tissue Puracyp #011; host or cells: human liver microsomes
T5 sequence (P33261 whole entry): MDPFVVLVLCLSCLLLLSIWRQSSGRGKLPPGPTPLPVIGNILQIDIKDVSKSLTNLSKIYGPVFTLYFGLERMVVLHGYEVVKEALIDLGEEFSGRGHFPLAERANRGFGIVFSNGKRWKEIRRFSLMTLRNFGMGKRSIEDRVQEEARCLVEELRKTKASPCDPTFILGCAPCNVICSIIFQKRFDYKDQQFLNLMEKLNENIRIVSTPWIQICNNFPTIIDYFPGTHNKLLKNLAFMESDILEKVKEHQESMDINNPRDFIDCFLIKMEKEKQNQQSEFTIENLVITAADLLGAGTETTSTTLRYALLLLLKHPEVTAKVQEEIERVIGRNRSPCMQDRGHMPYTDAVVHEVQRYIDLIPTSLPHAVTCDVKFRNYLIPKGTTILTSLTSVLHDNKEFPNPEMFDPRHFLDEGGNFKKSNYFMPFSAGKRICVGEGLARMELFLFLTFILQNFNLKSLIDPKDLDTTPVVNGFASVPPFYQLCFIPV
Procedure: as §1

[1] = tested on: P-glycoprotein (pregnane X receptor); test: In vitro metabolic gene induction studies; type: cell-based, human; details: up to 500 uM
Excerpt: Test 28 - In Vitro Metabolic Gene Induction Studies
Solventcode: DMSO Solvent Prep: Unit: uM
Cell line source: Puracyp Molecular 257.7590
Date Started: O5+eb-2O10 Date Completed: 15+eb-201O Weight:
Reference: Lamb book#8 pg.77 […]
lsoform Code: P{lycoprotein cell line: MDRI.C
Induc0on mechanism: pregnane X receptor
Concentration lnduction Cell […]
Note: 8ox ifdata is different.
. {calculated): slight Induotion (under tlffo fold) in vitro.
The highest response was less than that seen with 1ouM rifampicin.
(1 picture or pasted object on this page, not shown here)

mice = test: Tail immersion test (local anesthetic activity); type: in vivo
Procedure: The tail immersion test in mice. […] The method was performed by subcutaneous (sc) injection of the tested substance dissolved in saline, at a concentration range 0.06–2%, in a constant volume of 0.2 mL about 1 cm from the root of the mouse tail. Fifteen minutes later, the 3-cm distal part of the tail was immersed into temperature-controlled water (50 ± 0.5 °C). The reaction time (latency until the tail is pulled away) was measured by the means of a chronometer. In this assay the cut-off was 20 s [29].

Tissue distribution = type: in vivo, rats; details: for t0.5λz / Cmax / MRT / Tmax / Kp / k el: 5 mg/kg iv; for Kp: read-out: Kp (tissue-to-plasma AUC ratio); for k el: read-out: λz (converted)
Procedure: Pharmacokinetic study design. Male Wistar rats (250–300 g) bred in-house from progenitors obtained from Charles River Laboratories (Sulzfed, Germany) were used in this study. […] Moreover, this compound dissolved in the same solvent was administered orally (po) by oral gavage at two doses (50 and 100 mg/kg) (n = 4). Blood samples were collected from the catheter at various time points up to 5 h. […] The animals were anaesthetized (50/7.5 mg/kg ketamine/xylazine, ip) and sacrificed by decapitation at 5, 15, 30, 60, 120, 180, and 300 min after compound administration (n = 4 per time point). Blood was collected into heparinized tubes and organs such as liver, brain, lungs, kidneys, and heart were harvested. The blood samples were centrifuged at 4000 rpm for 10 min (EBA 12R, Hettich, Germany). Plasma and organs were stored at − 80 °C until analysis.
Before analysis, tissue samples were homogenized in phosphate-buffered saline, pH 7.4 (1:4, w/v) with a tissue homogenizer (TH220; Omni International, Inc., Warrenton, VA, USA). Plasma (100 μL) or homogenate samples (500 μL) were mixed with an internal standard (IS) solution (R-( +)-propranolol, 4 μg/mL in methanol). Then, 20 μL of sodium carbonate (0.125 M) was added to each tube and the samples were extracted with 3 mL of diethyl ether by vortexing for 1 min. After centrifugation (3000 rpm, 15 min), the organic phase was transferred to a new tube and evaporated to dryness under a gentle stream nitrogen at 37 °C in a water bath. The dry residue was reconstituted in 100 μL of acetonitrile. Subsequently, 50 μL of 0.2 M borate buffer (pH = 7.0) and 50 μL of 6 mM FMOC-Cl solution in acetonitrile were added. […] The reaction was stopped by the addition of 0.1 M solution of glycine in water (30 μL) and vortexing for 1 min. The reaction mixture was transferred directly into the autosampler vials. The chromatographic system (Merck-HITACHI, Japan) consisted of an L-2485 spectrofluorimetric detector operating at the excitation and emission wavelengths of 267 and 316 nm, respectively, an L-2130 pump, an L-2350 column oven, and an L-2200 autosampler. The EZChrom Elite Client/Server version 3.2 (Agilent Technologies Inc.) was used for data acquisition and processing. […] The column temperature was maintained at 50 °C. The mobile phase consisted of a mixture of acetonitrile and water (67:33, v/v), and pumped at a flow rate of 1 mL/min.
Pharmacokinetic data analysis. Plasma and tissue concentration versus time profiles were analyzed by the non-compartmental approach in Phoenix WinNonlin v. 6.3 software (Pharsight Corporation, Mountain View, CA, USA). The peak concentration (Cmax) and the time to reach Cmax (tmax) were obtained directly from individual concentration–time profiles. The initial concentration (C0) after an iv dosing was obtained by extrapolation to zero time. The linear trapezoidal rule was applied to calculate the areas under the concentration–time curve (AUC) from the time of dosing to the last measured data point (AUC0-t) or infinity (AUC0-∞). The terminal slope (λz) was estimated by linear regression and the terminal half-life (t0.5λz) was calculated as ln2/λz. The volume of distribution based on the terminal phase (Vz) was calculated as: Dose/(λz ∙ AUC0-∞), whereas clearance (CL) was obtained from the following equation: Dose/AUC0-∞. The mean residence time (MRT) was defined as: AUMC0-∞/AUC0-∞, where AUMC is the area under the first moment curve. The absolute bioavailability (Fa) was calculated according to the equation: (AUCpo./Dosepo)/(AUCiv/Doseiv).

hNav1.5 sodium channel = target: T6, hNav1.5 sodium channel (Homo sapiens, UniProt Q14524); test: Nav channel electrophysiology (IonWorks Quattro); type: cell-based
T6 construct: host or cells: CHO cells
T6 sequence (Q14524 whole entry): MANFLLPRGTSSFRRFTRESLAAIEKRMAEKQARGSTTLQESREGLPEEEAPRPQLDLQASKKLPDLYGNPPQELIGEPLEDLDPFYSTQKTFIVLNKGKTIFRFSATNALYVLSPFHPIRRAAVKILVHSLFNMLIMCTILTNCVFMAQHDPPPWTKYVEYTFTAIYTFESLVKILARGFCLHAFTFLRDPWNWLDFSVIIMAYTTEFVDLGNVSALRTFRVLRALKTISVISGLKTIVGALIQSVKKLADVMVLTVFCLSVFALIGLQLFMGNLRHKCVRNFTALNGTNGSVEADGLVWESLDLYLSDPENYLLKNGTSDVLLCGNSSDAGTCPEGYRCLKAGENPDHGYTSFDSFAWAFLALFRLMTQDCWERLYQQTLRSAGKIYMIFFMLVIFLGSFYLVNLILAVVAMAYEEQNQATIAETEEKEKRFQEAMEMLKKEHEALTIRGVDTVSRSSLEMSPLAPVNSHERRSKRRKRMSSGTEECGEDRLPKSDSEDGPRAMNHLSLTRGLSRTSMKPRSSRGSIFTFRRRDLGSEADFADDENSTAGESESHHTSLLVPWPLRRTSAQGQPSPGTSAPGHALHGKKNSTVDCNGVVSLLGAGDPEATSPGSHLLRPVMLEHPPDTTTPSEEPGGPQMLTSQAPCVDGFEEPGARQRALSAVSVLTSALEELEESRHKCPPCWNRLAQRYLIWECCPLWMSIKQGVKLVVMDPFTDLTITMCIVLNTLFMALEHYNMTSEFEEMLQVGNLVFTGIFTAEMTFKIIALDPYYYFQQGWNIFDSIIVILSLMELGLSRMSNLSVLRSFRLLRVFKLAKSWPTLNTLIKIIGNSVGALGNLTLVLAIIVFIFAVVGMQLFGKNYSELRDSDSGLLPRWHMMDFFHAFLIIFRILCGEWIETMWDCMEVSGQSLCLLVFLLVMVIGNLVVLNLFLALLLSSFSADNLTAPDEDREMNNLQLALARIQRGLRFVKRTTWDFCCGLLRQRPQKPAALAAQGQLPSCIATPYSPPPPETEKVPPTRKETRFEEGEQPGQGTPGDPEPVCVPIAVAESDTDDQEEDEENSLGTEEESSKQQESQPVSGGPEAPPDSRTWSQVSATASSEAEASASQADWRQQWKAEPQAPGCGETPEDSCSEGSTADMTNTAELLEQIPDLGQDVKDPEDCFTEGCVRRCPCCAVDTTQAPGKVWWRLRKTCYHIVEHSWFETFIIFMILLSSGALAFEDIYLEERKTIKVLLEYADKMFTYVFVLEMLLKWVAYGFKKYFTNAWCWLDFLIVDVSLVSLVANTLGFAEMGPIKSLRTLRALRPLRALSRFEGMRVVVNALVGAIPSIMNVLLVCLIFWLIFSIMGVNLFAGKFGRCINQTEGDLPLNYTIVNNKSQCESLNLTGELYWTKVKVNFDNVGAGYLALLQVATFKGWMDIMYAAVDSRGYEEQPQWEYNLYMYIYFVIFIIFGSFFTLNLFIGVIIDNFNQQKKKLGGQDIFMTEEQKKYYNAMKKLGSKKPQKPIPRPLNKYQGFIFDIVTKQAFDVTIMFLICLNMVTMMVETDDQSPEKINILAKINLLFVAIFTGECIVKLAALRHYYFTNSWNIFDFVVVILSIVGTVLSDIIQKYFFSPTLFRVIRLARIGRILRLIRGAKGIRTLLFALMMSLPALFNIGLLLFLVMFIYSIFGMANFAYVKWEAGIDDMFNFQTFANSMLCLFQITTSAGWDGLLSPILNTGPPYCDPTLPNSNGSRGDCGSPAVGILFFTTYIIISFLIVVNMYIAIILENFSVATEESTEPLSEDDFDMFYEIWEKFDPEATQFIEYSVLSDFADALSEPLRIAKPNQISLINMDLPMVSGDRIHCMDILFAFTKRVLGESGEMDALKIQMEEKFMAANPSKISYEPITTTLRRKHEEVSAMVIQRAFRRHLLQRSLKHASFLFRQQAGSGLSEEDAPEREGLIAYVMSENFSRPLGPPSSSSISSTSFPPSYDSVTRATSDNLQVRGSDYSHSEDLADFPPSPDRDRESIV

rats = test: Sciatic nerve ligation (SNL) model, von Frey test; type: in vivo; details: rats; for Threshold ± S.E.M. / % Pre-Drug ± S.E.M.: 6 mg/kg b.w., i.p.
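Wherever Cmax is given: organ homogenates in PBS analysed by HPLC after FMOC-Cl derivatization, non-compartmental analysis, Kp as tissue over plasma AUC, half-life taken as ln2 divided by λz.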
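Wherever concentration in rat brain (approximated) is given: organ homogenates in PBS analysed by HPLC after FMOC-Cl derivatization, non-compartmental analysis, Kp as tissue over plasma AUC, half-life taken as ln2 divided by λz.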
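Wherever concentration in rat brain is given: organ homogenates in PBS analysed by HPLC after FMOC-Cl derivatization, non-compartmental analysis, Kp as tissue over plasma AUC, half-life taken as ln2 divided by λz.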
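Wherever t0.5λz is given: organ homogenates in PBS analysed by HPLC after FMOC-Cl derivatization, non-compartmental analysis, Kp as tissue over plasma AUC, half-life taken as ln2 divided by λz.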

**Q.** For `CCC(CO)NCCOc1c(C)cccc1Cl` (centres unmarked) [Compound 4, R,S-2-((2-(2-chloro-6-methylphenoxy)ethyl)amino)butan-1-ol], which Inhibition type (CYP2D6) is on record?
**A.** Its Inhibition type is “Mixed/competitive”.

**Q.** And the pKi (CYP2D6)?
**A.** Its pKi is 5.85.

**Q.** And the “% inhibition of 500 µM concentration” value (CYP2D6; 500 µM, substrate at 100.0 µM)?
**A.** The value was 100 (substrate at 100.0 µM) %.

**Q.** What about the Inhibition type (CYP3A4) of the same molecule?
**A.** The Inhibition type was “Weak inhibition”.

**Q.** What about the “% inhibition of 500 µM concentration” value (CYP3A4; 500 µM, substrate at 200.0 µM) of the same molecule?
**A.** The value was 52 (substrate at 200.0 µM) %.

**Q.** What about the Inhibition type (CYP2A6) of the same molecule?
**A.** Its Inhibition type is “Mixed/competitive”.

**Q.** And the pKi (CYP2A6)?
**A.** The pKi was 3.43.

**Q.** And the “% inhibition of 500 µM concentration” value (CYP2A6; 500 µM, substrate at 10 µM)?
**A.** Its value is 44 (substrate at 10 µM) %.

**Q.** What about the Inhibition type (CYP2B6) of the same molecule?
**A.** The Inhibition type was “Weak inhibition”.

**Q.** And the “% inhibition of 500 µM concentration” value (CYP2B6; 500 µM, substrate at 25 µM)?
**A.** Its value is 69 (substrate at 25 µM) %.

**Q.** And the Inhibition type (CYP2C19)?
**A.** Its Inhibition type is “Mixed/competitive”.

**Q.** What about the pKi (CYP2C19) of the same molecule?
**A.** The pKi was 4.27.

**Q.** And the “% inhibition of 500 µM concentration” value (CYP2C19; 500 µM, substrate at […])?
**A.** Its value is 80 (substrate at 150.0 µM) %.

**Q.** And the induction [1]?
**A.** Its induction is “slight induction”.

**Q.** What does the source list for `CCC(CO)NCCOc1c(C)cccc1Cl` (centres unmarked) [KM-408, R,S-2-((2-(2-chloro-6-methylphenoxy)ethyl)amino)butan-1-ol hydrochloride]?
**A.** Reaction time to painful stimulus (mice; 0.062%): 4.4 ± 1.0 s; Prolongation of the time reaction (mice; 0.125%): 42.9%; Reaction time to painful stimulus (mice; 0.125%): 5.0 ± 1.0 s; Prolongation of the time reaction (mice; 0.5%): 166% and 165.7%; Reaction time to painful stimulus (mice; 0.5%): 9.3 ± 0.9 s; Prolongation of the time reaction (mice; 2.0%): 323% and 322.9%; Reaction time to painful stimulus (mice; 2.0%): 14.8 ± 1.9 s; Reaction time to painful stimulus (mice; […]): 7.4 ± 1.0 s; tail immersion test: active at (mice; mice): 0.5%; t0.5λz (Tissue distribution; Brain): 28.56 min; t0.5λz (Tissue distribution; Heart): 41.30 min; t0.5λz (Tissue distribution; Kidneys): 16.23 min; t0.5λz (Tissue distribution; Liver): 41.99 min; t0.5λz (Tissue distribution; Lungs): 30.84 min; concentration in rat brain (approximated) (Tissue distribution; 2 h after iv, tissue density 1 g/mL assumed): ~2.2*10^–7 M; concentration at 2 h (Tissue distribution; male, Wistar, rat, brain, 5 mg/kg, 2 h after iv administration): 64.9 ng/g; Cmax (Tissue distribution; male, Wistar, rat, Brain): 1770 ng/g; MRT (Tissue distribution; male, Wistar, rat, Brain): 37.9 min; Tmax (Tissue distribution; male, Wistar, rat, Brain): 5 min; Kp (Tissue distribution; male, Wistar, rat, Brain): 0.83; k el (Tissue distribution; male, Wistar, rat, Brain): 0.0004 s⁻¹; Cmax (Tissue distribution; male, Wistar, rat, Heart): 494 ng/g; MRT (Tissue distribution; male, Wistar, rat, Heart): 58.5 min; Tmax (Tissue distribution; male, Wistar, rat, Heart): 15 min; Kp (Tissue distribution; male, Wistar, rat, Heart): 0.38; k el (Tissue distribution; male, Wistar, rat, Heart): 0.000283 s⁻¹; Cmax (Tissue distribution; male, Wistar, rat, Kidneys): 1950 ng/g; MRT (Tissue distribution; male, Wistar, rat, Kidneys): 25.3 min; Tmax (Tissue distribution; male, Wistar, rat, Kidneys): 5 min; Kp (Tissue distribution; male, Wistar, rat, Kidneys): 0.62; k el (Tissue distribution; male, Wistar, rat, Kidneys): 0.000717 s⁻¹; Cmax (Tissue distribution; male, Wistar, rat, Liver): 161 ng/g; MRT (Tissue distribution; male, Wistar, rat, Liver): 113 min; Tmax (Tissue distribution; male, Wistar, rat, Liver): 5 min; Kp (Tissue distribution; male, Wistar, rat, Liver): 0.14; k el (Tissue distribution; male, Wistar, rat, Liver): 0.000283 s⁻¹; Cmax (Tissue distribution; male, Wistar, rat, Lungs): 4350 ng/g; MRT (Tissue distribution; male, Wistar, rat, Lungs): 46.9 min; Tmax (Tissue distribution; male, Wistar, rat, Lungs): 5 min; Kp (Tissue distribution; male, Wistar, rat, Lungs): 1.76; k el (Tissue distribution; male, Wistar, rat, Lungs): 0.000383 s⁻¹; pIC50 (hNav1.5 sodium channel; 10 Hz): 5.31; pIC50 (hNav1.5 sodium channel; Inactivated state): > 5.00; pIC50 (hNav1.5 sodium channel; Tonic block): 4.32; Threshold ± S.E.M. (rats; 0.0 h (pre-drug)): 2.88 ± 0.59 g; % Pre-Drug ± S.E.M. (rats; 0.5 h): 131 ± 15%; Threshold ± S.E.M. (rats; 0.5 h): 3.07 ± 0.51 g; % Pre-Drug ± S.E.M. (rats; 1.0 h): 202 ± 19%; Threshold ± S.E.M. (rats; 1.0 h): 5.94 ± 1.19 g; % Pre-Drug ± S.E.M. (rats; 2.0 h): 301 ± 45 %; Threshold ± S.E.M. (rats; 2.0 h): 8.23 ± 1.56 g; % Pre-Drug ± S.E.M. (rats; 4.0 h): 260 ± 39 %; Threshold ± S.E.M. (rats; 4.0 h): 7.09 ± 1.31 g; % Pre-Drug ± S.E.M. (rats; 6.0 h): 186 ± 31%; Threshold ± S.E.M. (rats; 6.0 h): 5.34 ± 1.32 g; SNL TPE (rats; ip): 2 h; SNL: active at (rats; ip, von Frey test): 6.0 mg/kg and 6 mg/kg
